Key:
BT-549 [1] = conditions: 72 h
Summary of the method: (§1)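 Rows with a drug sensitivity score of zero were dropped, and EC50 was taken from the fitted percent-inhibition dose-response curve, censored at the highest concentration. Data were normalised on each plate to vehicle and a positive kill control and checked by Z'-factor. The assay seeded breast cancer cell lines in 20 µl onto 384-well plates pre-loaded with compound in 5 µl medium for 72 h, then added 2.5 µl CellTiter-Blue for 2 h at 37 °C and read fluorescence at 560/590 nm.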

CAL-120 = conditions: 72 h
Summary of the method: as §1

HCC1937 [2] = conditions: 72 h
Summary of the method: as §1

MDA-MB-436 [3] = conditions: 72 h
Summary of the method: as §1

SK-BR-3 [4] = conditions: 72 h
Summary of the method: as §1

BT-474 = assay: drug sensitivity score (DSS), CellTiter-Blue viability (DSS (AUC-based score)); higher = stronger viability inhibition; extreme values may be limits of the assay; conditions: incubation time: 72 h
Description: (§2)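 DSRT with the CellTiter-Blue (resazurin reduction) viability readout, fluorescence 560/590 nm, 72 h incubation. Plates were normalised to DMSO and benzethonium chloride controls. DSS is computed from the area under the fitted dose-response curve (5 or 9 concentrations).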

BT-549 [5] = assay: as above; conditions: incubation time: 72 h
Description: as §2

CAL-148 = assay: as above; conditions: incubation time: 72 h
Description: as §2

CAL-51 = assay: as above; conditions: incubation time: 72 h
Description: as §2

CAL-85-1 = assay: as above; conditions: incubation time: 72 h
Description: as §2

DU-4475 = assay: as above; conditions: incubation time: 72 h
Description: as §2

HCC1143 = assay: as above; conditions: incubation time: 72 h
Description: as §2

HCC1937 [6] = assay: as above; conditions: incubation time: 72 h
Description: as §2

HDQ-P1 = assay: as above; conditions: incubation time: 72 h
Description: as §2

MDA-MB-436 [7] = assay: as above; conditions: incubation time: 72 h
Description: as §2

MDA-MB-453 = assay: as above; conditions: incubation time: 72 h
Description: as §2

MDA-MB-468 = assay: as above; conditions: incubation time: 72 h
Description: as §2

MFM-223 = assay: as above; conditions: incubation time: 72 h
Description: as §2

SK-BR-3 [8] = assay: as above; conditions: incubation time: 72 h
Description: as §2

HCC1937 [9] = assay: drug sensitivity score (DSS), CellTox Green (DSS (AUC-based score)); higher = stronger drug effect (viability inhibition or cytotoxicity); extreme values may be limits of the assay; conditions: incubation time: 72 h
Summary of the method: (§3)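 The area under the fitted dose-response curve was used to calculate the drug sensitivity score. Cells from breast cancer lines were incubated for 72 h in 384-well plates with compound at 5 concentrations spaced 10-fold over a 10,000-fold range specific to each compound. Plates were read for CellTox Green and then CellTiter-Glo, and normalised to 0.1 % DMSO and a positive kill control.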

MDA-MB-231 = assay: as above; conditions: incubation time: 72 h
Summary of the method: as §3

Compound | EC50, CellTiter-Blue viability (BT-549 [1]) | EC50, CellTiter-Blue viability (CAL-120) | EC50, CellTiter-Blue viability (HCC1937 [2]) | EC50, CellTiter-Blue viability (MDA-MB-436 [3]) | EC50, CellTiter-Blue viability (SK-BR-3 [4]) | drug sensitivity score (BT-474) | drug sensitivity score (BT-549 [5]) | drug sensitivity score (CAL-148) | drug sensitivity score (CAL-51) | drug sensitivity score (CAL-85-1) | drug sensitivity score (DU-4475) | drug sensitivity score (HCC1143) | drug sensitivity score (HCC1937 [6]) | drug sensitivity score (HDQ-P1) | drug sensitivity score (MDA-MB-436 [7]) | drug sensitivity score (MDA-MB-453) | drug sensitivity score (MDA-MB-468) | drug sensitivity score (MFM-223) | drug sensitivity score (SK-BR-3 [8]) | drug sensitivity score (HCC1937 [9]) | drug sensitivity score (MDA-MB-231)
Nc1nc(Cl)nc2c1ncn2[C@H]1C[C@H](O)[C@@H](CO)O1 [Cladribine] | 839 nM | 923 nM | 73.4 nM | 799 nM | 884 nM | 0 | 3.51 | 0.812 | 0.39 | 0 | 1.23 | 3.82 | 8.9 | 0 | 1.7 | 0 | 0 | 0 | 1.21 | 0 | 0.0524
CS(=O)(=O)c1ccc(C(=O)Nc2ccc(Cl)c(-c3ccccn3)c2)c(Cl)c1 [Vismodegib] |  |  | 3920 nM | 58.8 nM |  | 0 | 0 | 0 | 0 | 0 | 0 | 0 | 1.01 | 0 | 4.6 | 0 | 0 | 0 | 0 | 0 | 0
COc1cccc2cc(-c3nc([C@H]4CC[C@H](C(=O)O)CC4)n4ncnc(N)c34)[nH]c12 [OSI-027] | 2580 nM | 1800 nM | 771 nM | 370 nM | 73.4 nM | 9.76 | 6.62 | 9.33 | 9.33 | 9.36 | 6.08 | 7.21 | 8.55 | 14.9 | 13.1 | 13.7 | 6.33 | 15.2 | 21.7 | 0 | 0
N#CC[C@H](C1CCCC1)n1cc(-c2ncnc3[nH]ccc23)cn1 [Ruxolitinib] |  |  | 1650 nM |  |  | 0 | 0 | 0 | 0 | 0 | 0 | 0 | 1.92 | 0 | 0 | 0 | 0 | 0 | 0 |  | 0
CN1CC[C@H](c2c(O)cc(O)c3c(=O)cc(-c4ccccc4Cl)oc23)[C@H](O)C1 [Alvocidib] | 298 nM | 98.2 nM | 133 nM | 330 nM | 79.7 nM | 14.5 | 17.2 | 20.3 | 19.9 | 20.8 | 22.4 | 17.9 | 19.1 | 19 | 15.6 | 19.6 | 17.6 | 19.2 | 23.9 | 0 | 16.5
CN1CCC(COc2cnc(-c3cccc(Cn4nc(-c5cccc(C#N)c5)ccc4=O)c3)nc2)CC1 | 2770 nM | 4950 nM | 3980 nM | 3530 nM | 2470 nM | 3.92 | 6.21 | 2.07 | 3.38 | 3.23 | 2.66 | 0 | 4.45 | 2.71 | 5.04 | 4.88 | 5.78 | 2.41 | 6.8 | 0 | 0
S=c1[nH]cnc2nc[nH]c12 [Mercaptopurine] |  | 9910 nM | 1550 nM |  |  | 0 | 0 | 0 | 0.87 | 0 | 0 | 0 | 4.84 | 0 | 0 | 0 | 5.53 | 0 | 0 | 0 | 0
COc1cccc2c1C(=O)c1c(O)c3c(c(O)c1C2=O)C[C@@](O)(C(=O)CO)C[C@@H]3O[C@H]1C[C@H](N)[C@H](O)[C@H](C)O1 [Doxorubicin] | 196 nM | 96.4 nM | 55.1 nM | 190 nM | 49.4 nM | 4.12 | 7.93 | 14.2 | 8.73 | 5.11 | 12.9 | 8.86 | 11.8 | 7 | 8.25 | 4.31 | 9.27 | 2.94 | 13.3 | 0 | 0
CN(C)C/C=C/C(=O)Nc1cc2c(Nc3ccc(F)c(Cl)c3)ncnc2cc1O[C@H]1CCOC1 [Afatinib] | 2700 nM | 836 nM | 1910 nM | 5410 nM | 7.53 nM | 23.5 | 5.88 | 5.66 | 1.9 | 13.1 | 0 | 0 | 7.41 | 15.3 | 3.02 | 21.3 | 13 | 3.47 | 31.5 | 1.72 | 0
CO[C@H]1C[C@@H]2CC[C@@H](C)[C@@](O)(O2)C(=O)C(=O)N2CCCC[C@H]2C(=O)O[C@H]([C@H](C)C[C@@H]2CC[C@@H](OC(=O)C(C)(CO)CO)[C@H](OC)C2)CC(=O)[C@H](C)/C=C(\C)[C@@H](O)[C@@H](OC)C(=O)[C@H](C)C[C@H](C)/C=C/C=C/C=C/1C [Temsirolimus] | 0.18 nM | 1.07 nM |  | 5.05 nM | 0.92 nM | 12.1 | 18.1 | 25.6 | 22.2 | 14.7 | 15.7 | 11.1 | 0 | 7.62 | 5.67 | 31.8 | 13.1 | 20.8 | 17.9 | 0 | 0
Nc1ccn([C@@H]2O[C@H](CO)[C@@H](O)[C@@H]2O)c(=O)n1 [Cytarabine] | 12.8 nM | 246 nM | 117 nM | 156 nM | 487 nM | 0 | 7.65 | 19.2 | 15.4 | 3.04 | 12.3 | 6.95 | 13.9 | 0 | 4.91 | 6.62 | 6.23 | 0 | 8.27 | 0 | 0
C=CCNC1=C2C[C@@H](C)C[C@H](OC)[C@H](O)[C@@H](C)/C=C(\C)[C@H](OC(N)=O)[C@@H](OC)/C=C\C=C(/C)C(=O)NC(=CC1=O)C2=O [Tanespimycin] | 20.9 nM | 218 nM | 100 nM | 25.2 nM | 15.7 nM | 21.3 | 24.3 | 22.4 | 16.9 | 15.7 | 28.2 | 24.8 | 18.2 | 19.3 | 25.2 | 32.6 | 0 | 25.8 | 29.2 | 0 | 25.3
CC[C@]1(O)C[C@@H]2CN(CCc3c([nH]c4ccccc34)[C@@](C(=O)OC)(c3cc4c(cc3OC)N(C)[C@H]3[C@@](O)(C(=O)OC)[C@H](OC(C)=O)[C@]5(CC)C=CCN6CC[C@]43[C@@H]65)C2)C1 [Vinblastine] | 3.04 nM | 0.3 nM | 0.67 nM | 5.02 nM | 0.3 nM | 21.8 | 25.2 | 18.7 | 16.1 | 17.8 | 13.7 | 19.4 | 32 | 18.2 | 18.7 | 20 | 21.6 | 13.1 | 35.2 | 0 | 17
Cc1c2oc3c(C)ccc(C(=O)N[C@@H]4C(=O)N[C@H](C(C)C)C(=O)N5CCC[C@H]5C(=O)N(C)CC(=O)N(C)[C@@H](C(C)C)C(=O)O[C@@H]4C)c3nc-2c(C(=O)N[C@@H]2C(=O)N[C@H](C(C)C)C(=O)N3CCC[C@H]3C(=O)N(C)CC(=O)N(C)[C@@H](C(C)C)C(=O)O[C@@H]2C)c(N)c1=O [Dactinomycin] | 1.27 nM | 1.09 nM | 2.17 nM | 6.66 nM | 2.91 nM | 17.7 | 32.8 | 34.1 | 29.7 | 30.9 | 38.4 | 27.4 | 21.8 | 28.5 | 27.9 | 30.5 | 31.4 | 20.1 | 28.9 | 0 | 20.5
C[C@]1(c2nc3c(C(N)=O)cccc3[nH]2)CCCN1 [Veliparib] |  |  |  |  |  | 0 | 0 | 0 | 0 | 0 | 0 | 0 | 0 | 0 | 0 | 0 | 0 | 0 | 0 | 0 | 0
OC[C@H]1O[C@@H](n2cnc3c2N=CNC[C@H]3O)C[C@@H]1O [Pentostatin] |  |  |  |  |  | 0 | 0 | 0 | 0 | 0 | 0 | 0 | 0 | 0 | 0 | 0 | 0 | 0 | 0 | 0 | 0
COc1cc(Nc2ncc3c(n2)-c2ccc(Cl)cc2C(c2c(F)cccc2OC)=NC3)ccc1C(=O)O [MLN8237] | 918 nM | 593 nM | 24.6 nM | 145 nM | 14.9 nM | 4.4 | 8.32 | 15 | 18.1 | 11.9 | 22.9 | 10.4 | 17.8 | 14.2 | 6.09 | 16.6 | 15.8 | 9.51 | 16.7 |  | 
